# Assay results taken from US20040014772A1, “Compositions and methods for treating glomerular disorders” (priority 2000, published 2004).
# How the values were obtained:
# CYP2B1 = CYP2B1 content in GEC exposed to PAN (western blot); type: cell-based, rat; settings: PAN 1.5 mM for 2 hr at 37° C.; CM 2 mM, PIP 0.2 mM, pyruvate 10 mM
# Source text: The microsome fraction obtained was subjected to SDS-page electrophoresis in 1 mm slab gels. The separated forms were transferred from gel to a nitrocellulose sheet using a Mini Trans-blot electroblotting unit. The primary antibodies were monoclonal anti-HO-1 (OSA-111, StressGen, Victoria, BC, Canada) and monoclonal anti-CYP2B1 (PM25, Oxford Biomedical Research, Oxford, Mich., USA). Subsequent to primary and secondary antibody (peroxidase-labeled) treatment, the blots were visualized by enhanced chemiluminescence method.
# [1] = tested on: glomerular epithelial cells GEC; test: PAN-induced cytotoxicity to GEC (trypan blue exclusion, LDH release); type: cell-based, rat; settings: PAN 1.5 mM 48 h; preincubation CM 2 mM, PB 25 μM, RN 1 mM, PIP 0.2 mM, pyruvate 10 mM
# Protocol: Rat GEC (kindly provided by both Dr. Saulo Klahr, Washington University School of Medicine, St. Louis, Mo., and Dr. […], University of Texas Health Science Center, San Antonio, Tex.) were maintained in RPMI-1640 medium supplemented with 10% FBS, 15 mM HEPES, insulin, penicillin, streptomycin and L-glutamine in a humidified atmosphere of 95% air-5% CO2 at 37° C. and fed at intervals of 3 days ([…] et al, 1995, Biochem. Biophys. 318(2):286-294). The cells were maintained in 75 Cm^2 tissue culture flasks and the monolayers were subcultured using 0.05% trypsin-0.53 mM EDTA in Hank's balanced salt solution (HBSS). For the experimental study, the cells were grown in 12-well tissue culture plate until confluence. On the day of experiment, the medium was discarded and the confluent GEC monolayer was washed twice with HBSS. The cells were then incubated with various concentrations of PAN (0, 0.1, 0.5, 1.0, 1.5, and 2.0 mM in HBSS) for different periods of time (0, 6 hours, 1 day, 2 days, 3 days and 4 days) at 37° C. At the end of the incubation, the incubation medium was discarded and the GEC monolayer was harvested by trypsinization with 0.05% trypsin-0.53 mM EDTA for 5 min at 37° C. Isolated cells were suspended in HBSS to give about 10^6 cells/ml. PAN-induced cytotoxicity to GEC was measured by the trypan blue exclusion assay (Baliga et al, 1996, Kidney Intl. 50:1118-1124) and lactate dehydrogenase (LDH) release assay (Baliga et al., 1998, Kidney Intl. 53:394-401.). The latter is the percentage of LDH released into the medium, to total LDH recovered from both medium and cellular fraction. […] After the incubation, the cell monolayers were washed twice with HBSS and then incubated with cytotoxic dose of PAN in HBSS for a period of time necessary to induce consistent cytotoxicity ([…], 48 h, based on the concentration and time course studies) at 37° C. PAN induced cytotoxicity on GEC was measured by trypan blue exclusion assay.
# [2] = Weight loss/gain of rats before and after treatments (PAN-induced nephrotic syndrome); type: in vivo, rat; settings: rats, day 7; PAN 7.5 mg/100 g BW iv; CM 120 mg/kg ip twice a day; PB 400 mg/kg ip every other day; means ± SE
# Protocol: Two different general CYP inhibitors were used, cimetidine (CM) and piperonyl butoxide (PB). Cimetidine has imidazole and cyano groups that inhibit CYP by interacting with the heme moiety. […] To determine the effect of the CYP inhibitors in PAN- induced nephrotic syndrome, CM (120 mg/kg BW) was administered intraperitoneal 1 h prior to PAN injection and then twice a day. Piperonyl butoxide (PB) which yields a metabolite that binds to the heme moiety of CYP, was given intraperitoneal (400 mg/kg BW) 4h before PAN injection and then every other day.
# Also, the CYP2B1 inhibitor piperine (PIP), a methylenedioxyphenyl compound found in black and red pepper was used. PIP is believed to inhibit CYP2B1 by forming an inhibitory complex therewith. PIP was administered at a dose of 85 mg/kg of body weight (BW) by an intraperitoneal injection 16 hours prior to PAN injection and then once a day.
# CYP = settings: cited from earlier work
smiles,measurement,setting,value
CC(=O)C(=O)O [pyruvate],CYP2B1 content in GEC,CYP2B1,preserve
same,PAN-induced cytotoxicity to GEC,[1],prevent
"CCCCOCCOCCOCc1cc2c(cc1CCC)OCO2 [PB, piperonyl butoxide]",Body weight After Treatment (day7),[2],253 ± 4 g
"O=C(/C=C/C=C/c1ccc2c(c1)OCO2)N1CCCCC1 [PIP, piperine]",CYP2B1 content in GEC,CYP2B1,preserved
same,PAN-induced cytotoxicity to GEC,[1],markedly reduced
"CNC(=C[N+](=O)[O-])NCCSCc1ccc(CN(C)C)o1 [RN, ranitidine]",CYP2B1 content in GEC,CYP2B1,not
same,PAN-induced cytotoxicity to GEC,[1],did not show any protection
same,inhibition of CYP,CYP,either weakly or not at all
